From patent publication US20130287688A1, “NOVEL COMPOSITIONS AND USES OF ANTI-HYPERTENSION AGENTS FOR CANCER THERAPY” (XTUIT PHARMACEUTICALS, INC., priority 2010, published 2013)
“And” between values parts separate entries of the source, which are not always exact repeats. Equal values may be shown once.

What was measured:
[1] = system: E0771 breast tumors; test: Interstitial hydraulic conductivity of excised tumor tissue; assay type: in vivo, mice; details: 40 mg/kg i.p. daily, 6 days
Method: FIG. 31 is a bar graph showing that angiotensin inhibitors increase fluid flow in tumors. Interstitial hydraulic conductivity was measured by the flow rate of media through freshly excised tumor tissue. […] Animal number n=6.
Oxygenation was then studied using phosphorescence quenching microscopy. […] This decrease in tumor hypoxia was confirmed by using pimonidazole staining (FIGS. 29D and 30). To determine if losartan also increases nanomedicine delivery, which is dependent on both vascular supply and penetration across vessel walls into tumor tissue, nanoparticle penetration was measured using intravital multiphoton microscopy. Nanoparticle penetration rates were quantified as transvascular mass flux per unit vascular surface area and transvascular concentration difference, termed as the effective permeability. […] Penetration rates are largely dependent on fluid flow through the viscoelastic and tortuous tumor interstitium, which is a function of interstitial hydraulic conductivity. It was determined that losartan also increases the hydraulic conductivity of E0771 tumors (FIG. 31), likely through its anti-matrix effects, and a mathematical model (Chauhan V P, et al., Nature Nanotechnology. 2012; advance online publication) was used to confirm that this can improve the penetration rate of all sizes of nanomedicines (FIG. 32). […]

[2] = system: E0771 tumors; test: Nanoparticle penetration (effective permeability) by intravital multiphoton microscopy; assay type: in vivo, mice
Method: Penetration rates are quantified as effective permeability, which is the transvascular mass flux per unit vascular surface area and transvascular concentration difference.
Images were taken at ˜60 mW at sample surface. Mosaic images were taken in raster pattern using a motorized stage (H101, Prior Scientific) and customized automation software (LabView, National Instruments). Imaging studies were performed with a 20× magnification, 0.95NA water immersion objective (Olympus XLUMPlanFl, 1-UB965, Optical Analysis).
Concentrations were adjusted with in vitro calibration to result in roughly equal photoluminescence intensity for all three nanoparticle samples under 800 nm multiphoton excitation. […] Images were taken every 3 min at each region of interest for a duration of 1 hr. […] The analysis approach involved 3D vessel tracing to create vessel metrics and a 3D map of voxel intensity versus distance to the nearest vessel over time. Images were also corrected for sample movement over time with 3D image registration. The effective permeability was calculated with
Fluorescence intensities were used as these concentrations. The calculation was made as an average over the entire imaged volume for each tumor.

[3] = system: Mu89 tumors; test: Collagen I immunostaining of tumor sections; assay type: in vivo, SCID mice; details: 20 mg/kg/day, two weeks (FIG. 5D)
Method: (§1) Human soft tissue sarcoma (HSTS26T) and human melanoma (Mu89) tumors were grown subcutaneously in the legs and dorsal skin fold chamber of severe combined immunodeficient (SCID) mice (Leunig M, et al. (1992) Cancer Res 52:6553-6560). Human pancreatic adenocarcinoma cells (L3.6PL) were grown orthotopically in the pancreas of SCID mice. L3.6PL tumors were induced with a sub-capsular injection of one million cells in the tail of the pancreas. Tumor sizes were monitored in spontaneous FVB/N-Tg (MMTV-PyVT) 634MU1/J mice and tumors selected for treatment when they reached a size of 4 to 6 mm in diameter (Guy C T et al. (1992) Mol Cell Biol 12:954-961).
(§2) Cozaar (losartan potassium) tablets were ground using a mortar and pestle. The powder was then dissolved in water to obtain a concentration of 2.5 mg/ml. The solution was then filtered and stored in a sterile container.
(§3) Frozen sections were cut into 10 μm sections for immunohistochemistry and imaging. Collagen I was detected using the LF-67 antibody (1:100 dilution) with a previously described protocol (Znati C A, et al. (2003) Clin Cancer Res 9:5508-5513). TSP-1 was detected with a goat anti-human antibody (1:50 dilution), which cross-reacts with mice (sc-12312, Santa Cruz Biotechnology Inc., Santa Cruz, Calif.). For collagen and TSP-1 analysis, images at 20× magnification were taken randomly from each slide. The collagen and TSP-1 content was determined by measuring the number of pixels above a threshold value that was set based on the average intensity value of pixels from all slides under analysis. The background-signal intensity for both collagen I and thrombospondin-1 immunostaining was low and uniform.

[4] = system: L3.6 pl orthotopic pancreatic tumors; test: Collagen I immunostaining of tumor sections; assay type: in vivo, SCID mice; details: 20 mg/kg/day, two weeks (FIG. 5B)
Method: as §1, §2, §3

[5] = system: HSTS26T tumors; test: Collagen I immunostaining of tumor sections; assay type: in vivo, SCID mice
Method: as §1, §2, §3

[6] = system: Mu89 tumors; test: TSP-1 immunostaining of tumor sections; assay type: in vivo, SCID mice; details: losartan treatment
From the text: (§4) TSP-1 is a key regulator of TGF-β1 activation and losartan has been reported to reduce TSP-1 expression and TGF-β1 activation in mouse models of Marfan's syndrome and muscular dystrophy (Dietz H C (2010) J Clin Invest 120:403-407). […] In both Mu89 and HSTS26T tumors the immunostaining patterns for TSP-1 (FIGS. 7A-7B) and collagen I (FIGS. 5C-5D) were closely matched. The inventors detected high levels of TSP-1 and collagen I in the tumor margin, while losartan induced obvious reductions in TSP-1 and collagen I levels in the tumor center (FIGS. 5C, 7A).
as §3

[7] = system: HSTS26T tumors; test: TSP-1 immunostaining of tumor sections; assay type: in vivo, SCID mice; details: losartan treatment
From the text: as §4, §3

[8] = system: E0771 tumors; test: Solid stress (tumor opening technique); set-up: species or system mice; details: mouse, in vivo
Method: Solid stress was assessed using an ex vivo technique involving the measurement of the extent of tumor tissue relaxation (tumor opening relative to tumor diameter) following a stress-releasing incision, with larger openings indicating higher stress.
When the tumors reached a size of −1 cm in diameter, the mice were anesthetized. Subsequently, each tumor was excised, washed with Hanks' Balanced Salt Solution (HBSS) and its three dimensions were measured. Each tumor was cut along its longest axis, to a depth of 80% of its shortest dimension, using a scalpel. The tumors were allowed to relax for 10 minutes in HBSS to diminish any transient, poro-elastic responses. Afterwards, the opening resulting from the cut was measured at the middle of the cut at the surface of the tumor. Solid stress is proportional to the size of the opening relative to the size of the dimension perpendicular to the cut.

CCCCc1nc(Cl)c(CO)n1Cc1ccc(-c2ccccc2-c2nn[nH]n2)cc1 [losartan]
interstitial hydraulic conductivity [1]: large increase | effective permeability ([2]; 12 nm nanoparticles): improved | effective permeability ([2]; 60 nm nanoparticles): improved | effective permeability ([2]; 125 nm nanoparticles): improved | reduction in collagen I immunostaining [3]: 20% | reduction in collagen I immunostaining [4]: 50% | reduction in collagen I immunostaining ([5]; 20 mg/kg/day, dose response (FIG. 3), vs saline): 42% | reduction in collagen I immunostaining ([5]; 20 mg/kg/day, two weeks (FIG. 5D)): 44% | reduction in collagen I immunostaining ([5]; 60 mg/kg/day, dose response (FIG. 3), vs saline): 63% and 65% | decrease in TSP-1 immunostaining [6]: 24% | decrease in TSP-1 immunostaining [7]: 73% | solid stress [8]: reduces solid stress
